Experimental data published in patent US5441983A, “Treatment of infection by enveloped virus with calix(N)arene compounds” (Genelabs Incorporated, priority 1992, dated 1995).
Converted amounts (≈) assume the structure as drawn. Like-named read-outs stand apart in the source and are kept apart here.

Tests used:
[1] = tested on: HSV-2 333; assay: Inhibition of viral yield, wild type HSV-2 333; details: Human alphaherpesvirus 2, HeLa, read-out: ID90
Method: (§13) These compounds tested were the nucleoside analogs acyclovir (ACV), ganciclovir (DHPG), phosphonoformate (PFA), and phosphomethoxyethyladenine (PMEA). Inhibition of viral yield was determined, as above, by infecting Hela cells in the presence of wild type or drug-resistant strains of HSV-1 or HSV-2, and serial dilutions of a selected anti-viral compound, and infecting Vero cells with serial dilutions of the Hela cell lysate, as above.
(§14) The KOS (HSV-1) and 333 (HSV-2) are wild type viruses; the KOS(PMEA)' and KOS(PFA)' are drug-resistant HSV-1 strains having a DNA polymerase mutation. The 333(DHPG) strain is a drug-resistantHSV-2 strain having a thymidine kinase mutation.
(§15) The following strains of HSV-1 and HSV-2 virus were used: KOS, a wild type HSV-1 virus; KOS (PMEA) and KOS (PFA), both drug-resistant HSV-1 viruses having a DNA polymerase mutation; 333, a wild type HSV-2 HSV-2 virus, and 333 (DHPG), a drug-resistant HSV-2 virus having a thymidine kinase mutation.
(§16) After growth at 37° C. for 24 hours in 2 ml of RPMI-1640 containing 2% FCS and penicillin and streptomycin (P/S), the cells were frozen at -70° C. until the time for titration. The cells were freeze/thawed 3 times to release virus from the cells, serially diluted 10 fold, and the serial dilutions were added to Vero cells in culture. After 2 hours incubation at 37° C. the virus was removed and 0.5 ml methycellulose (4K cps) in RPMI-1640 and 2% FCS+P/S was added. Two days later, the medium was removed. The cells were stained in 0.8% crystal violet in 50% ethanol. The plaques formed were counted and the titer was calculated from the fold of dilutions. From the drug dose response, the concentration of each drug required to effect a 90% inhibition of virus yield, the IC90 concentration was determined.

[2] = tested on: HSV-1 KOS(PMEA)'; assay: Inhibition of viral yield, drug-resistant HSV-1 KOS(PMEA)'; details: Human alphaherpesvirus 1, HeLa, read-out: ID90
Method: as §13, §14, §15, §16

[3] = tested on: HSV-2; assay: Topical treatment of genital HSV-2 infection, guinea pigs, second study
Method: In another study using the guinea pig genital model described above, animals were infected with HSV-2, then treated with KY-1 or Y-1 topically at concentrations of 2% or 5% drug. […] Animals were treated and scored daily for severity of infection for 19 days.
(§17) The MS strain of HSV-2 was utilized for the experimental animal infection. Female Hartley strain guinea pigs (Charles River Breeding Laboratories, Kingston, NY) weighing 250-300 g were inoculated intravaginally with 2.0×10^5 plaque-forming units of HSV-2 one hour after being swabbed for removal of vaginal secretions.
Formulations of KY-1 or Y-1 were prepared by dissolving the compound in a 1.5% methyl cellulose solution such that final concentration of compound was 2% or 5% (wt/wt). Control animals were given either no treatment (N=10 animals) or treatment with placebo (1.5% methylcellulose solution).
(§18) To determine the effect of therapy on the development and spread of external genital lesions, lesion severity was scored on a 0-5+ scale through the primary infection period (19-21 days). Lesion score-day areas and virus titer-day areas under the curve, and peak lesion scores and peak virus titers between untreated and placebo-treated or placebo-treated and drug-treated animals were compared using the Mann-Whitney U range sum test. A p-value of 0.05 or less was considered significant.
Animals were scored daily for 19 days following inoculation for presence of lesions and severity of lesions (on a 0-5+ point scale). Lesion scores were tabulated as area under the curve of daily lesion score vs. time (days) and peak lesion score observed. A known antiviral agent, acyclovir (ACV) was administered in a 5% formulation to 8 animals as a positive control in the study.

[4] = tested on: HSV-1 KOS; assay: Inhibition of viral yield, wild type HSV-1 KOS; details: Human alphaherpesvirus 1, HeLa, read-out: ID90
Method: as §13, §14, §15, §16

[5] = tested on: HSV-2 333 (DHPG)'; assay: Inhibition of viral yield, drug-resistant HSV-2 333(DHPG)'; details: Human alphaherpesvirus 2, HeLa, read-out: ID90
Method: as §13, §14, §15, §16

[6] = tested on: HSV-1 KOS (PFA)'; assay: Inhibition of viral yield, drug-resistant HSV-1 KOS(PFA)'; details: Human alphaherpesvirus 1, HeLa, read-out: ID90
Method: as §13, §14, §15, §16

[7] = tested on: HSV-2; assay: Topical treatment of genital HSV-2 infection, guinea pigs, first study; details: 5%
Method: Briefly, female guinea pigs were infected intravaginally with HSV-2, then treated topically three times daily beginning 6 hours or 48 hours after inoculation with HSV-2, as described in Example 13. […] Swabs of vaginal secretion were obtained and assayed for viral activity by a standard CPE assay. The severity of genital lesions was scored on a 0-5+ scale through the period of primary infection (21 days).
as §17
In the first study, groups of 10 guinea pigs were treated topically (0.1 ml intravaginally +0.1 ml on external genital skin) three times daily (approximately every eight hours) for seven days beginning 6 h or 48 h after inoculation with HSV-2.
To determine the effect of treatment on vaginal viral replication, swabs of vaginal secretions were obtained on days 1, 3, 5, 7 and 10 after HSV inoculation, placed in a tube containing 2.0 ml of media, vortexed and frozen at -70° C. until titrated for HSV-2. When all samples were collected, they were thawed, diluted serially and HSV-2 titers determined using rabbit kidney cells in a microtiter CPE assay.
as §18

[8] = tested on: HSV-1; assay: HSV-1 viral yield inhibition by combined drug exposure; assay type: cell-based; details: HSV-1, FIG. 34A
Text: With either drug alone, a maximum decrease in viral yield was slightly less than three logs (orders of magnitude).
Two days later, the medium was removed.

[9] = tested on: HIV-RF-II; assay: Inhibition of syncytia formation, HIV-RF-II
Method: (§19) Briefly, cells chronically infected with HTLV-IIIB or RF-II HIV strains were incubated in the presence of serial dilutions of the selected KY compound, then further cocultured with indicator cells. The extent of syncytia formation was scored under phase microscopy.
(§20) Representative calix(n)arene compounds from Table 2 were tested for inhibition of cytopathic effects in cells infected with one of two HTLV-III strains, HTLV-IIIB and RF-II strains, as described in Example 12, and in the subsection above.
(§21) Human CD4^+ indicator cells (VB) and chronically infected H9 cells were maintained in RPMI-1640 medium supplemented with 5% fetal calf serum, 100 Units of penicillin per ml and 100 μg of streptomycin per ml at 37° C. in a humidified incubator containing 7% CO2.
(§22) For the fusion assay, serial dilutions between 1:2 and 1:2^8 of a selected KY compound, 1 mg/ml in PBS were made in a 96 well round bottom plate. The diluted KY compound was transferred to a 96 well flat-bottom plate. To each well was added 25 μg chronically infected H9 cells (at 2×10^6, cells/ml), or cells chronically infected with RF-II strain HIV, followed by incubation at 37° C. for 45 minutes. To each well was then added 25 μl VB cells (about 5×10^4 cells), and the cells and virus isolates were cocultured for 18 hours in a humid 5% CO2 atmosphere.

[10] = tested on: HSV-1; assay: Plaque reduction assay, HSV-1, Vero cells; assay type: cell-based, HSV-1 (Kos-1); details: for IC50: Human alphaherpesvirus 1, Vero, plaque reduction, Vero cells
Method: (§1) used in Table 3 were further tested for activity against HSV infection in
(§2) a plaque reduction assay, as detailed in Example 6. Here Vero cells, after
(§3) overnight incubation, were exposed to serial dilutions of KY compound,
(§4) from 0.625-10 μg/ml, and HSV-1 or HSV-2 virus for two hours. After
(§5) washing to remove drug and extracellular virus, the cells were further
(§6) incubated for 2 days, then stained and counted for plaque formation.
(§7) Percent inhibition was determined by dividing plaques produced by total
(§8) number of plaques in infected, untreated controls. From the concentration
(§9) effect curve of plaque inhibition (expressed as percent of control), the
(§10) concentration of compound required to produce 50% plaque reduction,
(§11) IC50, was determined. The IC50 values for infection by HSV-1 and
(§12) HSV-2 infection is given in the right-hand columns in Table 3. With

[11] = tested on: panel of human cell lines; assay: Cytotoxicity in proliferating human cell lines; assay type: cell-based; details: 72 h, read-out: IC50 drug concentration (50% cell death)
Method: In addition, a large number of representative aryl macrocyclic compounds (including those shown in Tables 1 and 2) were examined for toxicity in cell culture, using a panel of human cell lines, as detailed in Example 4. Briefly, the selected KY- or Y- compound was added to cell cultures at a final concentration of 5, 10, 25, 50, or 100 μg/ml. Three days later the cells were washed to remove drug, and stained with a vital stain, to determine the percentage of dead cells in each culture. The IC50 drug concentration, i.e., value concentration of drug which produced 50% cell death, was 50 μg/ml for KY-143, KY-151, and KY-163, and 100 μg/ml or greater for all of the other KY compounds tested. For KY-1, which has a molecular weight of 1404 daltons, a drug concentration of 100 μg/ml is equivalent to about […].
A panel of human cell lines was used to check the toxicity of the drugs, including: KB (nasopharyngeal carcinoma), HeLaS3 (cervical epithelial carcinoma), PLC (hepatocarcinoma), HepG2 (human hepatocarcinoma) HepG2T14 (hepatocarcinoma transfected with HBV), WI38 (normal human lung fibroblast), BT549 (breast cancer), SW480 ([…]), and A549 (lung cancer).
Three days later, the medium was removed and the cells were stained with Commassie Blue in 40% methanol and 7% acetic acid. The results are discussed in Section II above.

[12] = tested on: HSV-1 or HSV-2; assay: Inhibition of HSV cytopathic effect (CPE) in Vero cells; details: 10-20 μg/ml
Method: In the method reported in Example 5, Vero cells were infected with HSV-1 or HSV-2 and allowed to grow in culture until cytopathic effects were clearly visible. In the absence of infection, the cells form an even monolayer of fibro-blastlike cells. With HSV infection, a cytopathic effect characterized by round cells in suspension is clearly evident after 24 hours, followed by clumping and lysis of infected cells after 24-72 hours.
In the drug inhibition study reported in Example 5, cells were exposed to HSV-1 or HSV-2 virus and, at the same time, to a selected aryl macrocyclic compound, at a final drug concentration of 10 μg/ml. Twenty-four hours later the cells were examined for cytopathic effect.
Vero cells were maintained in RPMI-1640 medium supplemented with 5% fetal calf serum, 100 Units of penicillin per ml and 100 μg of streptomycin per ml at 37° C. in a humidified incubator containing 7% CO2. The HSV strains HSV-1 (Kos-1) and HSV-2 (333) were used.
1×10^5 Vero cells were plated in each well of a 96 well microtitre plate in 0.2 ml RPMI-1640 medium containing 5% FCS and 0.1% methyl cellulose (15 cps). After overnight incubation, and cell doubling, the medium was aspirated and replaced with 100 .1 of the same medium containing 2% FCS, and 50.1 control or drug solution to a final drug concentration of 10 μg/ml and 50 μl virus, containing about 3 PFU/cell, i.e., 6 x 10^s PFU/well, of HSV-1 or HSV-2.
The cells were cultured for 24 hours at 37° C. at which time cytopathic effects are clearly visible. In the absence of viral infection, the cells form an even monolayer of fibroblast cells. With viral infection, the cells form a suspension of round cells, followed by cell clumping, whose appearance is easily distinguishable from normal fibroblast cells. If no detectable cytopathic effect was produced, the test was repeated with 10 μg/ml. A parallel set of cells without virus inoculation were done as a control for cytotoxicity to Vero cells.

[13] = tested on: HIV-HXB; assay: Inhibition of syncytia formation, HIV-HXB (HTLV-IIIB); details: for EC100: Human immunodeficiency virus 1, 18 h, read-out: HIV-HXB ED100, complete inhibition of syncytia formation
Method: as §19, §20, §21, §22

[14] = tested on: HSV-2; assay: Plaque reduction assay, HSV-2, Vero cells; assay type: cell-based, HSV-2 (333); details: Human alphaherpesvirus 2, Vero
Method: as §1, §2, §3, §4, §5, §6, §7, §8, §9, §10, §11, §12

[15] = tested on: RSV; assay: Inhibition of RSV cytopathic effect in HEp2 cells; assay type: cell-based; details: human respiratory syncytial virus, HEp-2; HEp2 cells, cytopathic effect; read-out: ED50 RSV
[16] = tested on: Influenza A (Taiwan); assay: Inhibition of influenza A cytopathic effect (clumping) in MDCK cells; assay type: cell-based, Influenza A virus (A/Taiwan strain); details: Influenza A virus, 24 h, 50% reduction in percent clumped cells, read-out: ED50 Influenza A (Taiwan)
Method: With virus infection, a cytopathic effect characterized by cell clumping is observed. For each compound tested, drug concentrations of 0.1, 1, 10, 25, and 100 μg/ml were added to cultured cells at the time of virus infection, as detailed in Examples 9 and 11. […] The inhibition of clumping was plotted as a function of drug concentration, to determine the dose effective to produce a 50% reduction in the percent clumped cells, measured with respect to control (no drug treatment).
Assays to assess the antiviral activity of KY- and Y-compounds in tissue culture were performed in 96-well flat-bottom tissue culture plates (Falcon 307), using conditions similar to those used in the cytotoxicity assays described above. In these assays, compound was tested in quadruplicate by serially diluting the compound in 2% FCS-MEM using serial two-fold dilutions (0.05 ml/well). A 0.05 ml volume of the appropriate virus containing approximately 100 median tissue culture infectious doses (TCID50) was then added to all wells except those set aside as antiviral and tissue control wells. Next, approximately 3×10^3 HEp2 cells (0.1 ml) were added to each well. Control wells containing antiviral and no virus (antiviral control), containing virus but no antiviral (virus control), or containing medium without virus or antiviral (tissue control), were included in each test. The challenge virus was then back titrated. All assay plates were incubated at 35° C. for 5 to 7 days in a 5% CO2 incubator.
The anti-influenza A activity of KY compounds was evaluated as described in Example 9, except that MDCK cells (kidney cell line) was used for infection in vitro by influenza virus (strain A/Taiwan).

[17] = tested on: HSV-1; assay: Topical treatment of ocular HSV-1 infection, rabbits
Method: New Zealand white rabbits were acclimated for a minimum of two days prior to inoculation to allow the animals to accommodate to conditions in the vivarium facility. After the accommodation period, animals received a slit lamp ocular examination to exclude any animals with preexisting anterior segment ocular defects. Animals were bilaterally inoculated topically with an 80 μl drop of Minimal Essential Medium (MEM; Gibco) containing 10^5 pfu/ml McKrae strain HSV-1; eyes were massaged for 30 seconds. Animals were replaced individually in cages.
On day 4 post inoculation (PI), animals were evaluated by slit lamp microscopy. Corneal epithelial, iris, and conjunctival disease were graded on an increasing scale of severity from 0+ to 4+. After evaluation, animals were divided into 4 groups of 5 animals with matched corneal, stromal and conjunctival involvement. Topical therapy was initiated immediately after animal grouping. Therapy groups included:
Group #1: 5 rabbits, Y-1 topical therapy (6.25 μg/50 μl) 5×/dayfor 4 days;
Group #2: 5 rabbits, Y-1 topical therapy (12.5 μg/50 μl) 5×/dayfor 4 days;
Group #3: 5 rabbits, Y-1 topical therapy (18.75 μg/50 μl) 5×/day for 4 days;
Group #4: 5 rabbits, placebo therapy (sterile water) 5×/day for 5 days.
All Y-1 doses were formulated to contain these concentrations in a volume of 50 μl (a standard eye drop).
Topical therapy with 0-19 μg Y-1 in 50 μl was initiated on day 4 post-inoculation (PI) and continued to day 7 PI. All animals received daily ocular slit lamp evaluations from day 3 through day 7 PI. The ocular HSV-1 induced disease severity was recorded daily.
Eyes of all animals were additionally sampled for the presence of infectious HSV-1 on days 0 (pre-inoculation), 3, 5, and 7 PI. Briefly, tear film was obtained by swabbing the lower and upper conjunctival sacs and retaining the swab in the nasal fornix for 10 seconds. The swabs were eluted individually in Hank's Buffered Saline (HBSS, Gibco Laboratories). Fifty microliter aliquots of the virus-HBSS eluate was adsorbed onto confluent HFF cell monolayers for 5 minutes. Monolayers were hydrated with Minimal Essential Medium (MEM; Gibco Laboratories), incubated at 37° C. and observed daily for two weeks to detect cytopathology consistent with HSV infection (HSV CPE).
On day 7 PI (sacrifice), the corneal epithelium was scraped from the eyes and HSV was recovered on HFF cell monolayers. Corneal epithelial co-cultures were evaluated daily by inverted light microscopy.

[18] = tested on: HSV-1 and HSV-2; assay: Viral yield inhibition, HeLa cells, plaque count on Vero cells; details: virus yield or CPE assays
Method: The ability of selected naphthalene-subunit compounds to inhibit HSV-1 and HSV-2 viral yields at selected drug concentrations up to 10 μg/ml was assessed in the viral inhibition assay described in Example 7. Briefly, cultured Hela cells were exposed to serially diluted KY compound and virus, allowed to grow for 24 hours, then freeze/thawed 3 times to release virus particles. Vero cells were infected serial dilutions of the viral lysates were assayed for plaque counts as described in Example 6.
1×10^6 HeLa S3 were plated in 25 T flasks in 5 ml RPMI-1640+5% FCS+P/S. 24 hours later, the medium was aspirated and replaced with 6×10^6 PFU HSV-1 or HSV-2, and serial dilutions of selected KY compounds, at 10, 5, 2.5, 1.25, and 0.625 μg/ml drug. After growth at 37° C. for 24 hours in 2 ml of RPMI-1640 containing 2% FCS and P/S, the cells were frozen at -70° C. until the time for titration. The cells were freeze/thawed 3 times to release virus from the cells, and serially diluted 10 fold.
1×10^5 Vero cells were plated in each well of 24 well multi-dish in 1 ml RPMI-1640+5% FCS+P/S+0.1% methylcellulose (15 cps). On the second day, after removal of the medium, the 10 fold serially diluted virus in 100 μl was added in duplicate. […] The plaques formed were counted and the titer was calculated from the fold of dilutions.

[19] = tested on: coagulation; assay: Anti-coagulant activity after oral and intravenous administration; assay type: in vivo; details: protamine sulfate intravenous
Method: One of the considerations in the administering the composition, particularly when the drug is administered parenterally or orally, is systemic side effects. Studies conducted in support of the present invention indicate that the calix(n)arene compound, particularly the sulfonic acid compound, may show anti-coagulant activity after oral and intravenous administration. […] The protamine administration is timed to correspond to highest blood levels of the calix(n)arene compounds. In a typical method, a dose of protamine equivalent to about 1 mg per 100 heparin anticoagulant units is administered intravenously simultaneously with IV administration of the calix(n)arene, or 1-2 hours after oral administration of the macrocyclic drug. It is generally recommended that protamine be infused slowly (i.e., not more than a total of 50 mg/10 minutes).

## Nc1nc2c(ncn2COCCO)c(=O)[nH]1 [ACV, acyclovir, reference compound]
[1]
  IC90: ~10 µM
[2]
  IC90: 380 µM
[3]; 5%, 24 h
  % Animals with Lesions: 37.5%
  Lesion Score (AUC): 11.7
  Mean Peak lesion score: 1.5
[4]
  IC90: 14 µM
[5]
  IC90: > 100 µM
[6]
  IC90: 100 µM
[7]; +6 h
  Lesion score Area Under Curve: 2.7
  Mean Peak lesion score: 0.6
[7]; +48 h
  Lesion score Area Under Curve: 45.8
  Mean Peak lesion score: 3.8
[8]
  maximum decrease in viral yield, either drug alone: less than three

## O=S(=O)(O)c1c2c(O)c3c(O)c(c(S(=O)(=O)O)c(O)c3c1O)Cc1c(S(=O)(=O)O)c(O)c3c(O)c(S(=O)(=O)O)c(c(O)c3c1O)Cc1c(S(=O)(=O)O)c(O)c3c(O)c(S(=O)(=O)O)c(c(O)c3c1O)Cc1c(S(=O)(=O)O)c(O)c3c(O)c(S(=O)(=O)O)c(c(O)c3c1O)C2 [KY-143]
[9]; Human immunodeficiency virus 1, 18 h, read-out: HIV-RF-II ED100, complete inhibition of syncytia formation
  EC100: 125 µg/mL
[10]
  IC50: > 10 µg/mL
[11]; panel of human cell lines, 3 days
  IC50: 50 µg/mL (≈ 34.3 µM)
[12]
  protection from CPE, in words: low activity
[13]
  EC100: 250 µg/mL
[14]
  IC50: > 10 µg/mL

## COc1c2c(S(=O)(=O)O)cc3cc(S(=O)(=O)O)c(c(OC)c13)Cc1c(S(=O)(=O)O)cc3cc(S(=O)(=O)O)c(c(OC)c3c1OC)Cc1c(S(=O)(=O)O)cc3cc(S(=O)(=O)O)c(c(OC)c3c1OC)Cc1c(S(=O)(=O)O)cc3cc(S(=O)(=O)O)c(c(OC)c3c1OC)C2 [KY-151]
[9]; complete inhibition of syncytia formation
  HIV-RF-II ED100: 125
[10]
  IC50: 1.25 µg/mL (≈ 0.867 µM)
[11]; Homo sapiens
  IC50: 50 µg/mL (≈ 34.7 µM)
[13]
  EC100: 32 µg/mL
[15]
  EC50: 1.5 µg/mL (≈ 1.04 µM)
[16]
  EC50: > 94 µg/mL
[14]
  IC50: 1.8 µg/mL (≈ 1.25 µM)

## O=S(=O)(O)c1cc2c(O)c(c1)Cc1cc(S(=O)(=O)O)cc(c1O)Cc1cc(S(=O)(=O)O)cc(c1O)Cc1cc(S(=O)(=O)O)cc(c1O)Cc1cc(S(=O)(=O)O)cc(c1O)Cc1cc(S(=O)(=O)O)cc(c1O)Cc1cc(S(=O)(=O)O)cc(c1O)Cc1cc(S(=O)(=O)O)cc(c1O)C2 [Y-1]
[10]
  IC50: 7 µg/mL (≈ 4.7 µM)
[10]; plaque reduction HSV-1 and HSV-2
  relative anti-HSV activity, in words: somewhat more active than the corresponding n=4 and n=6 compounds
[3]; 2% or 6%, 6 h treatment
  lesions versus placebo, in words: reduced numbers of animals exhibiting lesions, decreased mean lesion scores and decreased peak lesion score
[3]; 2%, 6 h
  % Animals with Lesions: 66.7%
  Lesion Score (AUC): 16.9
  Mean Peak lesion score: 1.8
[3]; 2%, 24 h
  % Animals with Lesions: 60%
  Lesion Score (AUC): 22.0
  Mean Peak lesion score: 2.3
[3]; 6%, 6 h
  % Animals with Lesions: 30%
  Lesion Score (AUC): 8.1
  Mean Peak lesion score: 1.2
[3]; 6%, 24 h
  % Animals with Lesions: 40%
  Lesion Score (AUC): 14.7
  Mean Peak lesion score: 1.8
[3]; 24 hours post-infection, 6% KY-1 or Y-1, 2% KY-1
  lesions, in words: reduced numbers of lesion bearing animals and reduced severity of lesions
[17]; 12.5 μg/50 μl topical
  ocular disease, 12.5 μg/50 μl: most effective ocular therapy
[17]; 18.75 μg/50 μl topical
  corneal epithelial HSV-1 induced disease, 18.75 μg/50 μl: effective in reducing the development of corneal epithelial HSV-1induced disease
[17]; 18.75 μg/50 μl, days 6 and 7
  toxicity to corneal epithelial surface, conjunctiva, iris and stroma: somewhat toxic to the corneal epithelial surface and to the conjunctiva, iris and stroma
[17]; all concentrations, topical
  ocular disease severity versus placebo: effective in reducing the development of HSV-1 induced ocular disease
[17]; day 7
  viral titer in epithelial scrapings: dose-dependent reduction in viral titer
[13]; HXB strain
  relative activity against HXB strain, in words: comparable activities against the HXB strain
[13]; Human immunodeficiency virus 1, read-out: HIV-HXB IC50
  IC50: 16 µg/mL (≈ 10.7 µM)
[18]
  ED90 concentration: 12.5 μg/50 μl
[8]
  maximum decrease in viral yield, either drug alone: less than three
[14]
  IC50: 7.2 µg/mL (≈ 4.83 µM)

## protamine sulfate
[19]
  blocking of anticoagulant effect of calix(n)arene: effectively blocked
